From patent US20100210649A1, “PYRIDAZINONES AND FURAN-CONTAINING COMPOUNDS” (Sloan-Kettering Institute for Cancer Research, priority 2006, published 2010)
“And” between values parts separate entries of the source, which are not always exact repeats. Equal values may be shown once. Read-outs that look alike come from different tables or passages of the source.

Legend:
[1] = test system: H2444; assay: Dose response study (Alamar Blue), H2444; assay type: cell-based; details: Homo sapiens, read-out: IC50 H2444
Description: (§1) Dose response studies against 34 compounds from the pyridazinone and phenylfuran-carboxamide class were conducted. […] In addition, Tarceva was included in these dose response studies.
(§2) The dose response studies were done with the following standard procedure. First, the cells were counted and dispensed at 250 cells/well into 384-well microplates with compound. The cells were incubated for 48 hours at 37 C to complete treatment, and then alamar blue was added for an additional 48 hours. Finally, alamar blue reduction was measured and the data was loaded into ORIS, our data screening acquisition platform.

[2] = test system: H1734; assay: Non Small Cell Lung Cancer proliferation assay (Alamar Blue reduction), H1734; assay type: cell-based, human
Description: These cells have a doubling time of 1-2 days. All cell types are adherent and grow in colonies. The cells should be kept at a density between 50,000 cells/mL -500,000 cells/mL to provide for optimum growth and adequate nutrition. The cell line should be maintained at 37° C. in a humidified atmosphere with 5% CO2 in a sterile cell culture incubator.
Non Small Cell Lung Cancer Proliferation Assay.
(§3) High Controls for this assay are made by treating Non Small Cell Lung Cancer cells with 5 ul of 10% DMSO. [Final concentration in this assay is 1% DMSO].
Important Note: All compounds for testing in this assay should be done at the final concentration of 1% DMSO.
(§4) After addition, the cells are placed in cell culture incubator at 37° C. for 48 hours for complete treatment.
After drug treatment, cytotoxicity is measured by Alamar Blue reduction.
(§5) The cells are incubated for 48 hours at 37° C. to complete the Alamar Blue reduction.
(§6) The final step in the assay is to measure the amount of Alamar Blue reduction. […] The Alamar Blue fluorescence is measured at an excitation of 530 nm and emission of 590 nm.
For the NSCLC project, the cell based assay was screened against a small molecule library of approximately 200,000 compounds. The compound library is stored in our automated robotic freezer (Biophile) at −20° C. in 100% DMSO. Compound freeze and thaw cycles are kept to a minimum. […] This assay was performed on a fully automated linear track robotic platform (CRS F3 Robot System, Thermo Electron Corp., Ontario, Canada) utilizing several integrated peripherals for plate handling, liquid dispensing, and readout detection. […] The microplates are then placed at 37° C. for 48 hours to complete treatment of cells with compounds. Next, 5 ul of alamar blue was added using a liquid dispenser (Flexprop Precision Dispenser, Perkin Elmer, Mass., USA) and incubated for 48 hours at 37° C. The alamar blue prompt fluorescence was measured on Victor V (Victor^3 V, Perkin Elmer, Mass., USA) and output data files were loaded into ORIS (Oncology Research Informatics System, MSKCC, NY, USA), a screening data acquisition and analysis platform.
as §2

[3] = test system: H820; assay: Dose response study (Alamar Blue), H820; assay type: cell-based; details: Homo sapiens, read-out: IC50 H820
Description: as §1, §2

[4] = test system: H1118; assay: Non Small Cell Lung Cancer proliferation assay (Alamar Blue reduction), H1118; assay type: cell-based
Description: Non Small Cell Lung Cancer Proliferation Assay. To perform the assay, the Non Small Cell Lung Cancer lines are diluted in media and plated into 384 well microplates at a final density of 250 cells in […]. To ensure consistency and minimal pipetting error, the cells are plated using the Multidrop 384 with the following settings: Rocker Switch set at 384, Volume 45 and Column 24.
Low Controls for this assay are made by treating Non Small Cell Lung Cancer cells with 5 ul of staurosporine at 250 uM in 10% DMSO and 1% SDS. [Final concentration in this assay is 25 uM staurosporine in 1% DMSO and 0.1% SDS.]
as §3
The remaining wells of the 384 microplate may be treated with different compounds depending on the study. Important Note: All compounds for testing in this assay should be done at the final concentration of 1% DMSO.
as §4
After drug treatment, cytotoxicity is measured by Alamar Blue reduction. 5 μL of Alamar Blue is added to the 384 microplates using the Flexdrop.
as §5, §6
For the NSCLC project, the cell based assay was screened against a small molecule library of approximately 200,000 compounds. The compound library is stored in our automated robotic freezer (Biophile) at −20° C. in 100% DMSO. Compound freeze and thaw cycles are kept to a minimum. Compounds for use are diluted into the appropriate concentration and plated into 384 well microplates using our custom built low volume 384-well head tool (TPS 384, Apricot Designs Inc., CA, USA). This assay was performed on a fully automated linear track robotic platform (CRS F3 Robot System, Thermo Electron Corp., Ontario, Canada) utilizing several integrated peripherals for plate handling, liquid dispensing, and readout detection. First, non-small cell lung cancer cell lines are dispensed into 384 well microplates (Corning #3712 Tissue Culture Treated Plate, Corning, N.Y., USA) with 5 μL of test compounds at 100 uM in 10% DMSO for screening studies or […] in 10% DMSO to 50 nM in 10% DMSO for dose response studies. The microplates are then placed at 37° C. for 48 hours to complete treatment of cells with compounds. Next, 5 ul of alamar blue was added using a liquid dispenser (Flexprop Precision Dispenser, Perkin Elmer, Mass., USA) and incubated for 48 hours at 37° C. The alamar blue prompt fluorescence was measured on Victor V (Victor^3 V, Perkin Elmer, Mass., USA) and output data files were loaded into ORIS (Oncology Research Informatics System, MSKCC, NY, USA), a screening data acquisition and analysis platform.
as §2

[5] = test system: HPL1D (human peripheral lung epithelial) cell line; assay: Cell proliferation / dose response (Alamar Blue), HPL1D; assay type: cell-based; details: read-out: IC50 HPL1D
Description: WI-38: human lung fibroblast cell line. […] WT: wildtype; WT*: over-expressed wildtype. Dose response studies against 34 compounds from the pyridazinone and phenylfuran-carboxamide class were conducted. […] In addition, Tarceva was included in these dose response studies. The dose response studies were done with the following standard procedure. […] The cells were incubated for 48 hours at 37 C to complete treatment, and then alamar blue was added for an additional 48 hours. Finally, alamar blue reduction was measured and the data was loaded into ORIS, our data screening acquisition platform.

[6] = test system: H1650; assay: Non Small Cell Lung Cancer proliferation assay (Alamar Blue reduction), H1650; assay type: cell-based, human; details: for inhibition at 10 µM: NCI-H1650, primary screening; for inhibition at 10 µM / CONFIRMATION [%] 1650: 10 μM compound in 1% DMSO (v/v); for CONFIRMATION [%] 1650: percentage inhibition
In short: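 Viability after 48 hours of drug exposure at 37° C is scored by Alamar Blue reduction over a subsequent 48 hours, read at 530/590 nm. DMSO-only wells (1% final) define the high control.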

[7] = NCI-H2444, H2444, 12 point doubling dilution 10 uM to 5 nM, 48 h treatment, alamar blue additional 48 h
[8] = Homo sapiens, NCI-H1734, H1734, 12 point doubling dilution 10 uM to 5 nM, 48 h treatment, alamar blue additional 48 h, read-out: IC50 H1734
[9] = NCI-H820, H820, 12 point doubling dilution 10 uM to 5 nM, 48 h treatment, alamar blue additional 48 h
[10] = Homo sapiens; H1118; 12 point doubling dilution 10 uM to 5 nM; 48 h treatment, alamar blue additional 48 h; read-out: IC50 H1118
[11] = HPL1D, 12 point doubling dilution 10 uM to 5 nM, 48 h treatment, alamar blue additional 48 h
[12] = Homo sapiens, NCI-H1650, 48 h, H1650, 12 point doubling dilution 10 uM to 5 nM, 48 h treatment, alamar blue additional 48 h, read-out: IC50 H1650
[13] = Homo sapiens, NCI-H1650, phenylfuran-2-carboxamide SAR summary, read-out: IC50(uM) 1650
[14] = Homo sapiens, H1650, read-out: PRIMARY HTS [%] H1650 (percentage inhibition)
[15] = Homo sapiens, NCI-H1734, 48 h, H1734, 12 point doubling dilution 10 uM to 5 nM, 48 h treatment, alamar blue additional 48 h, read-out: IC50 H1734
[16] = Homo sapiens, 48 h, read-out: IC50 H1118
[17] = Homo sapiens, NCI-H1734, dose response 10 M to 5 nM, IC50, read-out: Dose Response (uM) H1734
[18] = Homo sapiens, read-out: Dose Response (uM) H1118
[19] = Homo sapiens, read-out: percentage inhibition H1650
[20] = Homo sapiens, NCI-H1734, read-out: Dose Response (uM) H1734
[21] = Homo sapiens; read-out: Dose Response (uM) H1118
[22] = Homo sapiens, NCI-H1650, dose response 10 M to 5 nM, IC50, read-out: Dose Response (uM) H1650

Compound	IC50 [1, 7]	IC50 [2, 8]	IC50 [3, 9]	IC50 [4, 10]	IC50 [6, 12]	IC50 [2, 20]	IC50 [4, 21]	IC50 [6, 22]	IC50 [5, 11]	IC50 [6, 13]	inhibition at 10 µM [6, 14]	CONFIRMATION [%] 1650 [6]	IC50 ([1]; NCI-H2444, 48 h)	IC50 [2, 15]	IC50 ([3]; NCI-H820, 48 h)	IC50 [4, 16]	IC50 ([5]; 48 h)	also measured
Cc1cccc(NC(=O)c2ccc([N+](=O)[O-])o2)c1 [compound 71762]	3800 nM	4.88 µM	3610 nM	0.38 µM	0.63 µM	–	–	–	> 10000 nM	0.43 µM	104%	135% and 106%	–	–	–	–	–	IC50 ([6]; phenylfuran-2-carboxamide SAR summary, read-out: IC50(uM) 1650): 0.41 µM
O=C(Nc1ccc(F)c(Cl)c1)c1ccc([N+](=O)[O-])o1 [compound 87200]	> 10000 nM	> 10 µM	> 10000 nM	4.33 µM	7.49 µM	–	–	–	> 10000 nM	0.29 µM	103%	112%	–	–	–	–	–	–
Cc1ccc(NC(=O)c2ccc([N+](=O)[O-])o2)cc1 [compound 98697]	–	–	–	–	0.6 µM	–	–	–	–	0.44 µM	103%	136%	4790 nM	4.42 µM	3530 nM	0.56 µM	> 10000 nM	–
O=C(Nc1ccc(Cl)cc1)c1ccc([N+](=O)[O-])o1 [compound 98698, 5-nitro-furan-2-carboxylic acid (4-chloro-phenyl)-amide]	–	–	–	–	0.47 µM	–	–	–	–	0.38 µM	101%	133%	2430 nM	3.47 µM	1830 nM	0.53 µM	> 10000 nM	–
Cc1cccc(-n2ncc(Cl)c(Cl)c2=O)c1 [compound 104122, 4,5-dichloro-2-m-tolyl-2H-pyridazin-3-one]	–	–	–	–	1.41 µM	–	–	–	–	–	–	–	240 nM	2.14 µM	180 nM	0.34 µM	280 nM	IC50 [2, 17]: 2.17 µM; IC50 ([2]; dose response 10 M to 5 nM, IC50, read-out: Dose Response (uM) H1734): 1.17 µM and 2.21 µM and 1.73 µM; IC50 [4, 18]: 0.11 µM; inhibition at 10 µM [6, 19]: 48%
O=c1c(Cl)c(Cl)cnn1-c1cccc(C(F)(F)F)c1 [compound 176729]	210 nM	1.22 µM	280 nM	0.31 µM	0.8 µM	0.61 µM	0.2 µM	1.44 µM	250 nM	–	–	–	–	–	–	–	–	inhibition at 10 µM [6, 19]: 100%
O=c1c(Cl)c(Cl)cnn1-c1ccccc1 [compound 257014]	–	–	–	–	1.64 µM	–	–	3.18 µM	–	–	–	–	340 nM	2.28 µM	240 nM	0.45 µM	380 nM	IC50 [2, 17]: 4.11 µM; IC50 [4, 18]: 0.27 µM
O=c1c(Br)c(Br)cnn1-c1ccccc1 [compound 257015]	300 nM	1.62 µM	220 nM	0.37 µM	0.92 µM	0.87 µM	0.22 µM	1.14 µM	300 nM	–	–	–	–	–	–	–	–	–

The next lines start with results.

IC50 [1, 7]	IC50 [2, 8]	IC50 [3, 9]	IC50 [4, 10]	IC50 [6, 12]	IC50 [2, 20]	IC50 [4, 21]	IC50 [6, 22]	Compound	IC50 [5, 11]	IC50 [6, 13]	inhibition at 10 µM [6, 14]	CONFIRMATION [%] 1650 [6]	IC50 ([1]; NCI-H2444, 48 h)	IC50 [2, 15]	IC50 ([3]; NCI-H820, 48 h)	IC50 [4, 16]	IC50 ([5]; 48 h)	also measured
410 nM	3.22 µM	370 nM	0.54 µM	2.49 µM	3.37 µM	0.38 µM	2.73 µM	Cc1ccc(-n2ncc(Cl)c(Cl)c2=O)cc1 [compound 257016]	480 nM	–	–	–	–	–	–	–	–	–
850 nM	2.51 µM	340 nM	0.54 µM	1.69 µM	2.12 µM	0.44 µM	2.42 µM	Cc1cccc(-n2ncc(Cl)c(Cl)c2=O)c1C [compound 257018]	1300 nM	–	–	–	–	–	–	–	–	–
820 nM	4.65 µM	670 nM	0.94 µM	4.15 µM	2.01 µM	0.29 µM	2.4 µM	Cc1ccc(-n2ncc(Cl)c(Cl)c2=O)cc1C [compound 257019]	620 nM	–	–	–	–	–	–	–	–	–
400 nM	2.62 µM	450 nM	0.58 µM	2.58 µM	1.83 µM	0.34 µM	2.1 µM	Cc1cc(C)cc(-n2ncc(Cl)c(Cl)c2=O)c1 [compound 257020]	410 nM	–	–	–	–	–	–	–	–	–
–	> 10 µM	6240 nM	6.41 µM	> 10 µM	3.25 µM	–	5.82 µM	CCCCc1cccc(-n2ncc(Cl)c(Cl)c2=O)c1 [compound 267063]	7040 nM	–	–	–	–	–	–	–	–	–
